According to article PMC4459817, “Vasculotide reduces endothelial permeability and tumor cell extravasation in the absence of binding to or agonistic activation of Tie2” (EMBO Molecular Medicine, 2015):

T1: human Tie2-Fc (Fc-conjugated extracellular domain of Tie2) (human, UniProt Q02763 23-748)
T1 chain: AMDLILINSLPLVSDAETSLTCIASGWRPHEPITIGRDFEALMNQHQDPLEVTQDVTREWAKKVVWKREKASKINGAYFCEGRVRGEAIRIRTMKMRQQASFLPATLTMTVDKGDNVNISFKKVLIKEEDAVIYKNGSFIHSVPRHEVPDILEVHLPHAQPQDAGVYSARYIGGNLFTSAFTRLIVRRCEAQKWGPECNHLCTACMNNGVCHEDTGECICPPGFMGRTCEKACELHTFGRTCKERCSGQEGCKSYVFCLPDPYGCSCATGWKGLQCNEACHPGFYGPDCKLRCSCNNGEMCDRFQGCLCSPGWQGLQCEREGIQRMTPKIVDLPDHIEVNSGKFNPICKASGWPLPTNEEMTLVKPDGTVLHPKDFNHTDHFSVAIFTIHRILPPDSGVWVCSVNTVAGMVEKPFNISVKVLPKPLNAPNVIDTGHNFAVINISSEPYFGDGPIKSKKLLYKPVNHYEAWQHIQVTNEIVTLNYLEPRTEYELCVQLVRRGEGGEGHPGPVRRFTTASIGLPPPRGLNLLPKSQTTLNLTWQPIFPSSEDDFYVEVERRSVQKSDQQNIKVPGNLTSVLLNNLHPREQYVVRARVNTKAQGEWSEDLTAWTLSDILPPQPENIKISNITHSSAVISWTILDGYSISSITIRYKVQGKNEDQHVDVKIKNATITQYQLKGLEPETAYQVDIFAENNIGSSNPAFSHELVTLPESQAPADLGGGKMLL


What was measured:
[1] = system: Tie2− tumor cells (LM2-4luc); test: MTS cell viability assay, tumor cells; format: cell-based, human; conditions: 48 h MTS; Supplementary Fig S2 (VT 0.1 to 1000 ng/mL)
Protocol: TCs were cultured in DMEM High Glucose basal media supplemented with 5% FBS and grown humidified incubators at 37 °C, 21%O2 and 5%CO2 unless otherwise specified. LM2-4 luc is a highly metastatically aggressive variant of the human breast carcinoma MDA-MB-231 cell line (derived through serial in vivo selection of lung metastases from orthotopic implantations in immunodeficient mice) that has been transfected with a firefly luciferase vector (Man et al, 2007; Ebos et al, 2009). HT29luc is a human colon carcinoma cell line also transfected with the luciferase gene (Hackl et al, 2013). SN12luc refers to a luciferase-tagged and highly metastatic clone of a human renal cell carcinoma cell line, SN12-PM6-L1luc (Jedeszko et al, 2015). MeWo is a human melanoma cell line (Ebos et al, 2009).
2. Endothelial cells (ECs) […]
5,000 LM2-4luc or HMVEC-LBl cells, in 100uL of their regular growth media, were seeded per well on a 96-well plate. […] Absorbances were read at 490nm and background-corrected with reference 560nm readings or acellular treatment-only […]
4. […] Protein concentrations in TC-CM vs. control media were measured using: a Quantikine ELISA kit (R&D Systems DVE00) for human VEGF; a FlowCytomix Multiplex kit (eBioscience BMS810FF) for human IL-6 and IL-8; and a BCA protein assay kit (Thermo Scientific) for total protein.

[2] = molecular target: T1, human Tie2-Fc (Fc-conjugated …); test: SPR

Molecule | cytotoxic effect on TCs / viability [1] | Kd [2] [pM]
CHHHRHSF [Vasculotide, 4-armed maleimide-functionalized polyethylene glycol (PEG) backbone to link together four cysteine-capped T7 peptides, that is, CHHHRHSF] | no direct cytotoxic effect | 
recombinant human Ang1 (rhAng1) (ligand, UniProt Q15389 16-498, looked up, angiopoietin-1, human, recombinant; also called angiopoietin-1; source: bought: R&D Systems (named for the Boyden chamber experiments)) HIGCSNQRRSPENSGRRYNRIQHGQCAYTFILPEHDGNCRESTTDQYNTNALQRDAPHVEPDFSSQKLQHLEHVMENYTQWLQKLENYIVENMKSEMAQIQQNAVQNHTATMLEIGTSLLSQTAEQTRKLTDVETQVLNQTSRLEIQLLENSLSTYKLEKQLLQQTNEILKIHEKNSLLEHKILEMEGKHKEELDTLKEEKENLQGLVTRQTYIIQELEKQLNRATTNNSVLQKQQLELMDTVHNLVNLCTKEGVLLKGGKREEEKPFRDCADVYQAGFNKSGIYTIYINNMPEPKKVFCNMDVNGGGWTVIQHREDGSLDFQRGWKEYKMGFGNPSGEYWLGNEFIFAITSQRQYMLRIELMDWEGNRAYSQYDRFHIGNEKQNYRLYLKGHTGTAGKQSSLILHGADFSTKDADNDNCMCKCALMLTGGWWFDACGPSNLNGMFYTAGQNHGKLNGIKWHYFKGPSYSLRSTTMMIRPLDF |  | 205
